Experimental data: patent US6060451A, “Thrombin inhibitors based on the amino acid sequence of hirudin” (The National Research Council of Canada, priority 1995, dated 2000)
Counter-ions that a name gives are not always drawn. Like-named read-outs stand apart in the source and are kept apart here. Blank lines part the entries; values can stand above or below the compound they belong to. Starred links: 1 amine or outer side, 2 acyl side, 3 side chain; linkers in the order of their positions; H or OH if unused. Non-standard residues stand in square brackets, D forms with d. Residues, ends and D or L forms follow the SMILES beside them. Argψ(COCH2)Gly = N=C(N)NCCC[C@H](N[*:1])C(=O)CCC(=O)[*:2]; X1 = N=C(N)NCCC[C@H](N[*:1])C(=O)CCCCC(=O)[*:2]; Cha = N[C@@H](CC1CCCCC1)C(=O)O; dCha = N[C@H](CC1CCCCC1)C(=O)O; Ava = NCCCCC(=O)O

Experiments:
thrombin [1] = molecular target: T1, thrombin (Homo sapiens, UniProt P00734); assay: Thrombin time in buffer containing fibrinogen (dTT); format: biochemical; conditions: read-out: IC50 dTT (concentration required to double thrombin time)
Text: *Concentration of compound required to double thrombin time in buffer

human plasma clotting = assay: Human plasma clotting time; format: biochemical; conditions: read-out: IC50 plasma clotting time (concentration required to inhibit human plasma clotting time by 50%)
Experimental: Thus, for the determination of prothrombin time, 50 μl of reconstituted citrated normal human plasma (Sigma, St-Louis, Mo.) is mixed with 50 μl of thromboplastin solution at 37° C. in a 400 μl cuvette. […] The clotting time is recorded following recalcification with 100 μl of 25 mM CaCl2. The clotting time in the absence of inhibitor was between 19-22 sec.
The same procedure is adopted for the determination of activated partial thromboplastin time except that reconstituted plasma is activated for 3 minutes with cephalin (Sigma, St-Louis, Mo.).
**Concentration of compound required to inhibit human plasma clotting tim

thrombin [2] = molecular target: T1, thrombin; assay: Antithrombin activity in vitro, Ki (Table III); format: biochemical; conditions: first test where two are given; means for 3-5 observations
Experimental: The reactions were initiated by addition of the substrate dissolved in 0.1 M Tris-HCl buffer, pH 7.8 to a preincubated solution of enzyme (0.4 or 0.04 nM) and variable concentrations of inhibitor dissolved in the same buffer. Initial velocities were recorded and Ki values were determined graphically by weighted linear regression of Dixon plots in the case of competitive inhibition, or by the method of Baici (Baici, 1981) for hyperbolic inhibition. Fluorogenic assays were conducted using the same conditions and instrument as above operating in the fluorescence mode in the Ratio (λex=383 nm, λem=455 nm). Fluorescence intensities were calibrated with 7-amino-4-methyl coumarin solution of known concentration. The specificity of the synthetic peptides of the present invention for human α-thrombin may also be determined by comparing their relative inhibitory activities towards both human α-thrombin and bovine α-thrombin and trypsin by comparing Ki values obtained in the amidolytic assay of thrombin activity.

human α-thrombin = human α-thrombin (Homo sapiens, UniProt P00734); assay: Fluorogenic amidolytic assay of thrombin activity, hydrolysis of Tosyl-Gly-Pro-Arg-AMC (Table I)

IC50 (thrombin [1]): 6.23 nM
IC50 (human plasma clotting): 10.5 nM
Ki (thrombin [2]): 1 nM
Compound: Ac(D-Phe)-Pro-Arg-(CH2)4 (CO)-[NH--CH2 --CH=CH--CH2 --(CO)]2 -DEFPIPY-OH ({Ac-dF-Pro-Arg-(CH2)4CO-NHCH2CH:CHCH2CO-NHCH2CH:CHCH2CO}-DEFPIPY-OH; also: Arg carbonyl bonded to (CH2)4 (non-amide backbone link)) [BCH-2414]

Compound: Ac(D-Phe)-thioPro-Arg-(CH2)2 (CO)-QSHNDGDFEEIPEEYLQ-OH [P290]
IC50 (human plasma clotting): 11 nM
Ki (thrombin [2]): 0.9 nM

Compound: CC[C@H](C)[C@H](NC(=O)[C@H](CCC(=O)O)NC(=O)[C@H](CCC(=O)O)NC(=O)[C@H](Cc1ccccc1)NC(=O)[C@H](CC(=O)O)NC(=O)CNC(=O)[C@H](CC(=O)O)NC(=O)[C@H](CC(N)=O)NC(=O)[C@H](Cc1c[nH]cn1)NC(=O)[C@H](CO)NC(=O)[C@H](CCC(N)=O)NC(=O)CCCCC(=O)[C@H](CCCNC(=N)N)NC(=O)[C@@H]1CCCN1C(=O)[C@@H](Cc1ccccc1)NC(C)=O)C(=O)N1CCC[C@H]1C(=O)N[C@@H](CCC(=O)O)C(=O)N[C@@H](CCC(=O)O)C(=O)N[C@@H](Cc1ccc(O)cc1)C(=O)N[C@@H](CC(C)C)C(=O)N[C@@H](CCC(N)=O)C(=O)O [P103]
Ki (human α-thrombin): 0.14 ± 0.02 nM

Compound: CC[C@H](C)[C@H](NC(=O)[C@H](CCC(=O)O)NC(=O)[C@H](CCC(=O)O)NC(=O)[C@H](Cc1ccccc1)NC(=O)[C@H](CC(=O)O)NC(=O)CNC(=O)[C@H](CC(=O)O)NC(=O)[C@H](CC(N)=O)NC(=O)[C@H](Cc1c[nH]cn1)NC(=O)[C@H](CO)NC(=O)[C@H](CCC(N)=O)NC(=O)CCC(=O)[C@H](CCCNC(=N)N)NC(=O)[C@@H]1CCCN1C(=O)[C@@H](CC1CCCCC1)NC(C)=O)C(=O)N1CCC[C@H]1C(=O)N[C@@H](CCC(=O)O)C(=O)N[C@@H](CCC(=O)O)C(=O)N[C@@H](Cc1ccc(O)cc1)C(=O)N[C@@H](CC(C)C)C(=O)N[C@@H](CCC(N)=O)C(=O)O [P311]
IC50 (thrombin [1]): 1.35 nM
Ki (thrombin [2]): 0.16 nM

Compound: CC[C@H](C)[C@H](NC(=O)[C@H](CCC(=O)O)NC(=O)[C@H](CCC(=O)O)NC(=O)[C@H](Cc1ccccc1)NC(=O)[C@H](CC(=O)O)NC(=O)CNC(=O)[C@H](CC(=O)O)NC(=O)[C@H](CC(N)=O)NC(=O)[C@H](Cc1c[nH]cn1)NC(=O)[C@H](CO)NC(=O)CNC(=O)CC(=O)[C@H](CCCNC(=N)N)NC(=O)[C@@H]1CCCN1C(=O)[C@@H](Cc1ccccc1)NC(C)=O)C(=O)N1CCC[C@H]1C(=O)N[C@@H](CCC(=O)O)C(=O)N[C@@H](CCC(=O)O)C(=O)N[C@@H](Cc1ccc(O)cc1)C(=O)N[C@@H](CC(C)C)C(=O)N[C@@H](CCC(N)=O)C(=O)O [P109]
Ki (thrombin [2]): 2.25 nM

Compound: CC[C@H](C)[C@H](NC(=O)[C@@H]1CCCN1C(=O)[C@H](CCC(=O)O)NC(=O)[C@H](Cc1ccccc1)NC(=O)CCCCNC(=O)CCCCNC(=O)CCCCC(=O)[C@H](CCCNC(=N)N)NC(=O)[C@@H]1CCCN1C(=O)[C@H](N)Cc1ccccc1)C(=O)N1CCC[C@H]1C(=O)N[C@@H](CC(C)C)C(=O)O [BCH-2767, (D-Phe)-Pro-Arg-(CH2)4 (CO)--[NH(CH2)4 CO]2 -FEPIPL-TFA salt] (H-[dF]P[X1][Ava][Ava]FEPIPL-OH)
IC50 (thrombin [1]): 165 nM
Ki (thrombin [2]): 40 nM

Compound: CC[C@H](C)[C@H](NC(=O)[C@@H]1CCCN1C(=O)[C@H](CCC(=O)O)NC(=O)[C@H](Cc1ccccc1)NC(=O)[C@H](CC(=O)O)NC(=O)CCCCNC(=O)CCCCNC(=O)CCCCC(=O)[C@H](CCCNC(=N)N)NC(=O)[C@@H]1CCCN1C(=O)[C@@H](Cc1ccccc1)NC(C)=O)C(=O)N1CCC[C@H]1C(=O)N[C@@H](CC(C)C)C(=O)O [BCH-2739, Ac(D-Phe)-Pro-Arg-(CH2)4 (CO)--[NH(CH2)4 (CO)]2 -DFEPIPL-OH] (Ac-[dF]P[X1][Ava][Ava]DFEPIPL-OH)
IC50 (thrombin [1]): 14.5 nM
Ki (thrombin [2]): 4 nM

Ki (human α-thrombin; read-out: Human Ki, human α-thrombin mediated hydrolysis of Tosyl-Gly-Pro-Arg-AMC, mean of three determinations ± SEM, ni = not inhibited): 41 ± 15 nM
Compound: [D-Phe^45, Ala^47 ]hirudin^45-65 [P73]

Compound: CC[C@H](C)[C@H](NC(=O)[C@@H]1CCCN1C(=O)[C@H](CCC(=O)O)NC(=O)[C@H](Cc1ccccc1)NC(=O)[C@H](CC(=O)O)NC(=O)CNC(=O)[C@H](CC(=O)O)NC(=O)[C@H](CC(N)=O)NC(=O)[C@H](Cc1c[nH]cn1)NC(=O)[C@H](CO)NC(=O)[C@H](CCC(N)=O)NC(=O)CCC(=O)[C@H](CCCNC(=N)N)NC(=O)[C@@H]1CCCN1C(=O)[C@@H](Cc1ccccc1)NC(C)=O)C(=O)N1CCC[C@H]1C(=O)N[C@@H](CCC(=O)O)C(=O)N[C@@H](CCC(=O)O)C(=O)N[C@@H](Cc1ccc(O)cc1)C(=O)N[C@@H](CC1CCCCC1)C(=O)N[C@@H](CCC(N)=O)C(=O)O [BCH-2408] (Ac-[dF]P[Argψ(COCH2)Gly]QSHNDGDFEPIPEEY[Cha]Q-OH)
IC50 (thrombin [1]): 1 nM
Ki (thrombin [2]): 0.075 nM

Compound: CC[C@H](C)[C@H](NC(=O)[C@H](CCC(=O)O)NC(=O)[C@H](CCC(=O)O)NC(=O)[C@H](Cc1ccccc1)NC(=O)[C@H](CC(=O)O)NC(=O)CNC(=O)[C@H](CC(=O)O)NC(=O)[C@H](CC(N)=O)NC(=O)[C@H](Cc1c[nH]cn1)NC(=O)[C@H](CO)NC(=O)[C@H](CCC(N)=O)NC(=O)CCCC(=O)[C@H](CCCNC(=N)N)NC(=O)[C@@H]1CCCN1C(=O)[C@@H](Cc1ccccc1)NC(C)=O)C(=O)N1CCC[C@H]1C(=O)N[C@@H](CCC(=O)O)C(=O)N[C@@H](CCC(=O)O)C(=O)N[C@@H](Cc1ccc(O)cc1)C(=O)N[C@@H](CC(C)C)C(=O)N[C@@H](CCC(N)=O)C(=O)O [P102]
Ki (human α-thrombin): 0.56 nM

Compound: CC[C@H](C)[C@H](NC(=O)[C@@H]1CCCN1C(=O)[C@H](CCC(=O)O)NC(=O)[C@H](Cc1ccccc1)NC(=O)[C@H](CC(=O)O)NC(=O)CCCCNC(=O)CCCCNC(=O)CCCCC(=O)[C@H](CCCNC(=N)N)NC(=O)[C@@H]1CCCN1C(=O)[C@H](N)Cc1ccccc1)C(=O)N1CCC[C@H]1C(=O)N[C@@H](CC(C)C)C(=O)O [BCH-2763, (D-Phe)-Pro-Arg-(CH2)4 (CO)--[NH(CH2)4 CO]2 -DFEPIPL-TFA salt] (H-[dF]P[X1][Ava][Ava]DFEPIPL-OH)
IC50 (thrombin [1]): 1.3 nM
Ki (thrombin [2]): 0.1 nM

Compound: CC[C@H](C)[C@H](NC(=O)[C@@H]1CCCN1C(=O)[C@H](CCC(=O)O)NC(=O)[C@H](Cc1ccccc1)NC(=O)[C@H](CC(=O)O)NC(=O)CNC(=O)[C@H](CC(=O)O)NC(=O)[C@H](CC(N)=O)NC(=O)[C@H](Cc1c[nH]cn1)NC(=O)[C@H](CO)NC(=O)[C@H](CCC(N)=O)NC(=O)CCC(=O)[C@H](CCCNC(=N)N)NC(=O)[C@@H]1CCCN1C(=O)[C@@H](CC1CCCCC1)NC(C)=O)C(=O)N1CCC[C@H]1C(=O)N[C@@H](CCC(=O)O)C(=O)N[C@@H](CCC(=O)O)C(=O)N[C@@H](Cc1ccc(O)cc1)C(=O)N[C@@H](CC1CCCCC1)C(=O)N[C@@H](CCC(N)=O)C(=O)O [P314] (Ac-[dCha]P[Argψ(COCH2)Gly]QSHNDGDFEPIPEEY[Cha]Q-OH)
IC50 (thrombin [1]): 1.3 nM
Ki (thrombin [2]): 0.02 nM
